Patent US6461997B1, “Triazole sulfones having herbicidal activity” (Monsanto Technology LLC, priority 1999, dated 2002)

Experiments:
[1] = test system: STEME (common chickweed); test: Pre-emergence herbicidal activity, cool season; type: in vivo, Stellaria media; conditions: lowest tested rate with 80% or greater inhibition; rates 300, 100, 30, 10 g/ha; about 14 days
Description: (§1) Tables 5 to 8 summarize results of tests conducted as described below to determine the pre-emergence herbicidal activity, in the form of a GR80 value, of illustrative compounds of this invention. […] Compounds of the invention were typically applied at rates of 300, 100, 30, and 10 g/ha. Where herbicidal activity was evident but 80% inhibition was not achieved at the highest rate tested, an asterisk (*) is shown in the following tables.
(§2) The pre-emergence tests were conducted by the following procedure. Topsoil was sieved to pass through a 1.27 cm screen. Fertilizer was added to the topsoil and the mixture was then sterilized by heating. The topsoil mixture was placed in a pot and compacted to a depth of 1.0 to 1.25 cm from the top of the pot. Seeds of each of several monocotyledonous and dicotyledonous annual plant species were placed on top of the soil. Additional soil was subsequently placed over the seeds to level-fill the pot. A known amount of each test compound dissolved or suspended in an appropriate organic solvent was diluted with a 50:50 mix of acetone and water and applied to the surface of the soil. After treatment the plants were placed in a greenhouse where they received 0.64 cm of overhead irrigation. All subsequent watering consisted of a light overhead mist and/or subirrigation as needed for germination and growth. Tables 5 and 6 below relate to warm season plant species which were placed after pre-emergence treatment in a greenhouse with a 30/21° C. day/night temperature regime. Tables 7 and 8 below relates to cool season plant species placed after pre-emergence treatment in a greenhouse or growth chamber with an 18/13° C. day/night temperature regime.
(§3) Approximately 14 days after planting and treating, the plants were observed and herbicidal efficacy recorded as percent inhibition by comparison with untreated plants.
(§4) The plant species usually regarded as weeds which were utilized in the tests are identified in the tables below according to the following legend, in which “d” indicates a dicotyledonous species and “m” a monocotyledonous species. All monocotyledonous species included in the tests herein are grasses.

[2] = test system: DATST (jimsonweed); test: Pre-emergence herbicidal activity, warm season; type: in vivo, Datura stramonium; conditions: GR80 = lowest tested rate (300, 100, 30, 10 g/ha) with 80% or greater inhibition; approx. 14 days after treating; 30/21° C.
Description: as §1, §2, §3, §4

[3] = test system: SINAR (wild mustard); test: Pre-emergence herbicidal activity, cool season; type: in vivo, Sinapis arvensis; conditions: lowest tested rate with 80% or greater inhibition; rates 300, 100, 30, 10 g/ha; about 14 days
Description: as §1, §2, §3, §4

[4] = test system: AGSST (creeping bentgrass); test: Pre-emergence herbicidal activity, cool season; type: in vivo, Agrostis stolonifera; conditions: GR80 = lowest tested rate (300, 100, 30, 10 g/ha) with 80% or greater inhibition; approx. 14 days after treating; 18/13° C.
Description: as §1, §2, §3, §4

[5] = test system: LAMPU (purple deadnettle); test: Pre-emergence herbicidal activity, cool season; type: in vivo, Lamium purpureum; conditions: lowest tested rate with 80% or greater inhibition; rates 300, 100, 30, 10 g/ha; about 14 days
Description: as §1, §2, §3, §4

[6] = test system: POLCO (wild buckwheat); test: Pre-emergence herbicidal activity, cool season; type: in vivo, Polygonum convolvulus; conditions: lowest tested rate with 80% or greater inhibition; rates 300, 100, 30, 10 g/ha; about 14 days
Description: as §1, §2, §3, §4

[7] = test system: PANMI (wild proso millet); test: Pre-emergence herbicidal activity, warm season; type: in vivo, Panicum miliaceum; conditions: GR80 = lowest tested rate (300, 100, 30, 10 g/ha) with 80% or greater inhibition; approx. 14 days after treating; 30/21° C.
Description: as §1, §2, §3, §4

[8] = test system: VERPE (creeping speedwell); test: Pre-emergence herbicidal activity, cool season; type: in vivo, Veronica persicaria; conditions: lowest tested rate with 80% or greater inhibition; rates 300, 100, 30, 10 g/ha; about 14 days
Description: as §1, §2, §3, §4

[9] = test system: GALAP (catchweed bedstraw); test: Pre-emergence herbicidal activity, cool season; type: in vivo, Galium aparine; conditions: lowest tested rate with 80% or greater inhibition; rates 300, 100, 30, 10 g/ha; about 14 days
Description: as §1, §2, §3, §4

[10] = test system: SASKR (russian thistle); test: Pre-emergence herbicidal activity, cool season; type: in vivo, Salsola kali; conditions: lowest tested rate with 80% or greater inhibition; rates 300, 100, 30, 10 g/ha; about 14 days
Description: as §1, §2, §3, §4

[11] = test system: CHEAL (common lambsquarters); test: Pre-emergence herbicidal activity, warm season; type: in vivo, Chenopodium album; conditions: GR80 = lowest tested rate (300, 100, 30, 10 g/ha) with 80% or greater inhibition; approx. 14 days after treating; 30/21° C.
Description: as §1, §2, §3, §4

[12] = test system: CIRAR (canada thistle (seedling)); test: Pre-emergence herbicidal activity, warm season; type: in vivo, Cirsium arvense; conditions: GR80 = lowest tested rate (300, 100, 30, 10 g/ha) with 80% or greater inhibition; approx. 14 days after treating; 30/21° C.
Description: as §1, §2, §3, §4

[13] = test system: SORHA (johnsongrass (seedling)); test: Pre-emergence herbicidal activity, warm season; type: in vivo, Sorghum halepense; conditions: GR80 = lowest tested rate (300, 100, 30, 10 g/ha) with 80% or greater inhibition; approx. 14 days after treating; 30/21° C.
Description: as §1, §2, §3, §4

[14] = test system: SETFA (giant foxtail); test: Pre-emergence herbicidal activity, warm season; type: in vivo, Setaria faberi; conditions: GR80 = lowest tested rate (300, 100, 30, 10 g/ha) with 80% or greater inhibition; approx. 14 days after treating; 30/21° C.
Description: as §1, §2, §3, §4

[15] = test system: BRAPP (broadleaf signalgrass); test: Pre-emergence herbicidal activity, warm season; type: in vivo, Brachiaria platyphylla; conditions: GR80 = lowest tested rate (300, 100, 30, 10 g/ha) with 80% or greater inhibition; approx. 14 days after treating; 30/21° C.
Description: as §1, §2, §3, §4

[16] = test system: SETVI (green foxtail); test: Pre-emergence herbicidal activity, cool season; type: in vivo, Setaria viridis; conditions: GR80 = lowest tested rate (300, 100, 30, 10 g/ha) with 80% or greater inhibition; approx. 14 days after treating; 18/13° C.
Description: as §1, §2, §3, §4

[17] = test system: ALOMY (blackgrass); test: Pre-emergence herbicidal activity, cool season; type: in vivo, Alopecurus myosuroides; conditions: GR80 = lowest tested rate (300, 100, 30, 10 g/ha) with 80% or greater inhibition; approx. 14 days after treating; 18/13° C.
Description: as §1, §2, §3, §4

[18] = test system: AMARE (redroot pigweed); test: Pre-emergence herbicidal activity, warm season; type: in vivo, Amaranthus retroflexus; conditions: GR80 = lowest tested rate (300, 100, 30, 10 g/ha) with 80% or greater inhibition; approx. 14 days after treating; 30/21° C.
Description: as §1, §2, §3, §4

[19] = test system: SOLNI (black nightshade); test: Pre-emergence herbicidal activity, warm season; type: in vivo, Solanum nigrum; conditions: GR80 = lowest tested rate (300, 100, 30, 10 g/ha) with 80% or greater inhibition; approx. 14 days after treating; 30/21° C.
Description: as §1, §2, §3, §4

[20] = test system: DIGSA (large crabgrass); test: Pre-emergence herbicidal activity, warm season; type: in vivo, Digitaria sanguinalis; conditions: GR80 = lowest tested rate (300, 100, 30, 10 g/ha) with 80% or greater inhibition; approx. 14 days after treating; 30/21° C.
Description: as §1, §2, §3, §4

[21] = test system: ECHCG (barnyardgrass); test: Pre-emergence herbicidal activity, warm season; type: in vivo, Echinochloa crus-galli; conditions: GR80 = lowest tested rate (300, 100, 30, 10 g/ha) with 80% or greater inhibition; approx. 14 days after treating; 30/21° C.
Description: as §1, §2, §3, §4

[22] = test system: POROL (common purslane); test: Pre-emergence herbicidal activity, warm season; type: in vivo, Portulaca oleracea; conditions: GR80 = lowest tested rate (300, 100, 30, 10 g/ha) with 80% or greater inhibition; approx. 14 days after treating; 30/21° C.
Description: as §1, §2, §3, §4

Structure (SMILES)	Pre-emergence activity GR80, STEME [1] [g/ha]	Pre-emergence activity (GR80) DATST [2] [g/ha]	Pre-emergence activity GR80, SINAR [3]	Pre-emergence activity (GR80) AGSST [4] [g/ha]	Pre-emergence activity GR80, LAMPU [5]	Pre-emergence activity GR80, POLCO [6]	Pre-emergence activity (GR80) PANMI [7] [g/ha]	Pre-emergence activity GR80, VERPE [8]	Pre-emergence activity GR80, GALAP [9]	Pre-emergence activity GR80, SASKR [10]	Pre-emergence activity (GR80) CHEAL [11] [g/ha]	Pre-emergence activity (GR80) CIRAR [12] [g/ha]	Pre-emergence activity (GR80) SETVI [16] [g/ha]	Pre-emergence activity (GR80) ALOMY [17] [g/ha]	Pre-emergence activity (GR80) ECHCG [21] [g/ha]	other results
CN(Cc1ccccc1)C(=O)n1cnc(S(=O)(=O)C(F)F)n1 [Example 33]	100	300	[empty]	300	30 g/ha	[empty]	300	300 g/ha	[empty]	300 g/ha						
CCSC(F)(F)S(=O)(=O)c1ncn(C(=O)N2CCOCC2)n1 [Example 48]	300	300	[empty]		[empty]	300 g/ha		[empty]	300 g/ha	[empty]						
O=C(N1CCCC1)n1cnc(S(=O)(=O)C(F)(F)C(F)F)n1 [Example 59]	300		[empty]	300	100 g/ha	300 g/ha	100	[empty]	100 g/ha	[empty]	100	300	300	300	300	Pre-emergence activity (GR80) SORHA [13]: 100 g/ha; Pre-emergence activity (GR80) SETFA [14]: 300 g/ha; Pre-emergence activity (GR80) BRAPP [15]: 100 g/ha; Pre-emergence activity (GR80) AMARE [18]: 100 g/ha; Pre-emergence activity (GR80) SOLNI [19]: 300 g/ha; Pre-emergence activity (GR80) DIGSA [20]: 30 g/ha
CN(C)C(=O)n1cnc(S(=O)(=O)C(F)(F)C(F)F)n1 [Example 61]	300		300 g/ha	100	300 g/ha	[empty]	300	100 g/ha	100 g/ha	100 g/ha	300	300	300	100	300	Pre-emergence activity (GR80) POROL [22]: 300 g/ha
